Assay results from ChEMBL document CHEMBL1127147, “Rational design for cytosolic delivery of nucleoside monphosphates : SATE and DTE as enzyme-labile transient phosphate protecting groups” (Bioorg Med Chem Lett, 1993).

Columns and labels:
CEM-TK(-) [1] = test: Tested for cytotoxicity against human CEM-TK- cell line (deficient in thymidine kinase activity); format: functional
CEM-TK(-) [2] = test: Tested for antiviral activity against HIV-1 infected human CEM-TK- cell line (deficient in thymidine kinase activity); format: functional, cell-based
CEM-SS [3] = test: Tested for cytotoxicity against human CEM-SS cell line; Percent reduction 40; format: functional
CEM-SS [4] = test: Tested for antiviral activity against HIV-1 infected human CEM-SS cell line; format: functional, cell-based
CEM-SS [5] = test: Tested for cytotoxicity against human CEM-SS cell line; format: functional

| EC50 (CEM-TK(-) [2]) | EC50 (CEM-SS [4]) | SMILES | CC50 (CEM-TK(-) [1]) | CC50 (CEM-SS [3]) | CC50 (CEM-SS [5]) |
| --- | --- | --- | --- | --- | --- |
| 8 µM | 60 µM | O=c1ccn(C2CCC(COP(=O)(OCCSSCCO)OCCSSCCO)O2)c(=O)[nH]1 (stereo not drawn) | 80 µM | > 100 µM | – |
| 4 µM | 5 µM | CC(=O)SCCOP(=O)(OCCSC(C)=O)OCC1CCC(n2ccc(=O)[nH]c2=O)O1 (stereo not drawn) | 70 µM | – | 900 µM |
